Assays:
Assay in all cases: ATP level assay (CellTiter-Glo), percent of control
Format in all cases: cell-based
[1] = system: MDA-MB (breast cancer); settings: two hour incubation; for activity at 100 µM: 2 h, compound alone, control DMSO, read-out: POC (percent of control) MDA-MB
From the text: (§1) In the present method, the method of using the available assays has been modified to measure the short-term effect of compounds of interest on ATP levels in the cells. […] In the modified method, the control and test cells are initially treated with the metabolic inhibitor for a period of about thirty minutes to about four hours. Typically, the treatment of the cells with the metabolic inhibitor is for one hour prior to adding the compound to be screened for anti-cancer properties. However, simultaneous treatment with the metabolic inhibitor and the compound being screened should provide satisfactory results. […] ATP synthesis in cells occurs over multiple biochemical pathways. These pathways are very responsive to metabolic inhibitors and/or changes in available nutrients. By incorporating a metabolic inhibitor which is known to impact certain pathways, the disclosed method provides for measurement of a compound's direct effects on the remaining metabolic pathways available for ATP synthesis in the cell.
(§2) Following treatment of the control and test cells with the metabolic inhibitor, the method calls for addition of the compound to be screened for anti-cancer properties to the cells. Following addition of the compound of interest, the assay is allowed to continue for about one hour to about four hours or depending on the luminescing agent up to eighteen hours. However, approximately 60 minutes will be sufficient to determine the ATP inhibiting effect of the compound to be screened on the cells. Following completion of the selected time period, the ATP level within the cell is determined. ATP levels can be determined by luminescence according to standard measuring procedures, i.e. the luminescence level of the assay from the living cells treated with the two component composition is compared to the luminescence level of the assay from the living cells without the two component composition, i.e., the control experiment. Thus, the ATP levels are determined without killing the cells during the incubation of the cells in the presence of the compound of interest. As a result, the measured reduction in ATP level corresponds directly to the inhibition of the metabolic pathways uninhibited by the metabolic blocker.
(§3) A wide variety of ATP luminescing detection reagents are available commercially. So long as the reagent produces a luminescence in the presence of ATP, the reagent will be suitable for use in the present method. Suitable reagents include but are not limited to any ATP dependent luciferase such as but not limited to firefly luciferase, other modified luciferase based reagents, i.e. luciferase derivatives. According to the rapid method for determining the anti-cancer activity of a compound, a sample of living cells is distributed across a number of testing wells. Typically, 96-well plates are used; however, the number of wells is not critical to the current method. When using a 96-well plate the number of living cells will commonly be about 20,000. The sample wells contain a cell growth medium to promote cell health and growth and an additive to prevent bacterial contamination of the wells. One common example of the cell growth medium is DMEM with 10% FBS as described above. One example of the additive to prevent bacterial contamination is a solution of penicillin G and streptomycin referred to commonly as Pen-Strep. The Pen-Strep solution typically contains 5000 units of penicillin G and 5000 micrograms of streptomycin. Thus, the rapid determination of anti-cancer compounds can be carried out using the following method. • The desired number of cells are distributed in a 96-well plate containing 100 μL DMEM plus 10% FBS with optional Pen-Strep. • After 24 hours, cells are treated with the compound of interest or a 5% solution of dimethyl sulfoxide (DMSO) in water as a control. • The time period for exposure to the compound of interest and the DMSO control will vary depending on the luminescing detection reagent. […]

[2] = system: HDF (normal cells); settings: two hour incubation; for activity at 100 µM: 2 h, compound alone, control DMSO, read-out: POC (percent of control) HDF
From the text: as §1, §2, §3

[3] = system: MCF10A (non-cancerous breast); settings: two hour incubation; for activity at 100 µM: Homo sapiens, MCF-10A, 2 h, compound alone, control DMSO, read-out: POC (percent of control) MCF10A
From the text: as §1, §2, §3

[4] = system: PC3 (prostate cancer); settings: two hour incubation; for activity at 100 µM: 2 h, compound alone, control DMSO, read-out: POC (percent of control) PC3
From the text: as §1, §2, §3

[5] = system: MCF7 (breast cancer); settings: two hour incubation; for activity at 100 µM: Homo sapiens, MCF7, 2 h, compound alone, control DMSO, read-out: POC (percent of control) MCF7
From the text: as §1, §2, §3

[6] = system: NCI-H196 (lung cancer); settings: two hour incubation; for activity at 100 µM: NCI-H196, 2 h, compound alone, control DMSO, read-out: POC (percent of control) NCI-H196
From the text: as §1, §2, §3

[7] = system: HeLa (cervical cancer); settings: two hour incubation; for activity at 100 µM: Homo sapiens, HeLa, 2 h, compound alone, control DMSO, read-out: POC (percent of control) HeLa
From the text: as §1, §2, §3

[8] = system: H293 (kidney cancer); settings: two hour incubation; for activity at 100 µM: 2 h, compound alone, control DMSO, read-out: POC (percent of control) H293
From the text: as §1, §2, §3

[9] = system: SkBr3 (breast cancer); settings: two hour incubation; for activity at 100 µM: Homo sapiens, SK-BR-3, 2 h, compound alone, control DMSO, read-out: POC (percent of control) SkBr3
From the text: as §1, §2, §3

[10] = system: T47D (breast cancer); settings: two hour incubation; for activity at 100 µM: Homo sapiens, T47D, 2 h, compound alone, control DMSO, read-out: POC (percent of control) T47D
From the text: as §1, §2, §3

[11] = system: BxPC3 (pancreatic cancer); settings: two hour incubation; for activity at 100 µM: Homo sapiens, BXPC-3, 2 h, compound alone, control DMSO, read-out: POC (percent of control) BxPC3
From the text: as §1, §2, §3

[12] = compound 100 uM + 2DG (about 10-20 mM)
[13] = compound 100 uM + rotenone (approximately 1.25 μM)

Structure (SMILES)	activity at 100 µM [1] [%]	POC (percent of control) MDA-MB [1, 12]	POC (percent of control) MDA-MB [1, 13]	activity at 100 µM [2] [%]	POC (percent of control) HDF [2, 12]	POC (percent of control) HDF [2, 13]	activity at 100 µM [3] [%]	POC (percent of control) MCF10A [3, 12]	POC (percent of control) MCF10A [3, 13]	activity at 100 µM [4] [%]	POC (percent of control) PC3 [4, 12]	POC (percent of control) PC3 [4, 13]	activity at 100 µM [5] [%]	POC (percent of control) MCF7 [5, 12]	POC (percent of control) MCF7 [5, 13]	activity at 100 µM [6] [%]	POC (percent of control) NCI-H196 [6, 12]	POC (percent of control) NCI-H196 [6, 13]	activity at 100 µM [7] [%]	POC (percent of control) HeLa [7, 12]	other results
Cc1cccc2c(CNS(=O)(=O)c3ccc(Cl)cc3)c[nH]c12 [Compound 28, 4-chloro-N-[(7-methyl-1H-indol-3-yl)methyl]benzenesulfonamide]	77.4	45.5% of control	78.1% of control	74.9	56.1% of control	62.2% of control	72.8	29.5% of control	81.1% of control	31.8	56.5% of control	64.8% of control	79	60.7% of control	53.5% of control	129	40.4% of control	60.6% of control	57.7	65.6% of control	POC (percent of control) HeLa [7, 13]: 96.1% of control; activity at 100 µM [8]: 43.2%; POC (percent of control) H293 [8, 12]: 49% of control; POC (percent of control) H293 [8, 13]: 43.3% of control; activity at 100 µM [9]: 102%; POC (percent of control) SkBr3 [9, 12]: 79.6% of control; POC (percent of control) SkBr3 [9, 13]: 87.3% of control; activity at 100 µM [10]: 66.1%; POC (percent of control) T47D [10, 12]: 33.7% of control; POC (percent of control) T47D [10, 13]: 62.2% of control; activity at 100 µM [11]: 40.4%; POC (percent of control) BxPC3 [11, 12]: 41.8% of control; POC (percent of control) BxPC3 [11, 13]: 44.6% of control
O=S(=O)(NCc1cncnc1)c1ccccc1 [Compound 15, N-(pyrimidin-5-ylmethyl)benzenesulfonamide]	108	91.2% of control	90.8% of control	89.2	100.2% of control	91.1% of control	105	122% of control	98.4% of control	109	117.6% of control	106.4% of control	148	103.4% of control	96.4% of control	92.3	115.4% of control	104.5% of control	103	113.9% of control	POC (percent of control) HeLa [7, 13]: 102.2% of control; activity at 100 µM [8]: 99.8%; POC (percent of control) H293 [8, 12]: 74.7% of control; POC (percent of control) H293 [8, 13]: 84.4% of control; activity at 100 µM [9]: 117%; POC (percent of control) SkBr3 [9, 12]: 123.3% of control; POC (percent of control) SkBr3 [9, 13]: 93% of control; activity at 100 µM [10]: 89.6%; POC (percent of control) T47D [10, 12]: 82.5% of control; POC (percent of control) T47D [10, 13]: 109.4% of control; activity at 100 µM [11]: 98.8%; POC (percent of control) BxPC3 [11, 12]: 70.8% of control; POC (percent of control) BxPC3 [11, 13]: 88.9% of control
